In patent EP4810038A1, “METHOD FOR TREATING ALK-POSITIVE OR ROS1-POSITIVE NON-SMALL CELL LUNG CANCER” (Shenzhen TargetRx Co., Ltd., priority 2023, dated 2025):
Several values for one entry are separate records, joined by “and”; a condition that tells them apart may be missing. Identical values can stand only once. Entries after “also recorded” stand apart in the source; their conditions may differ.

System: ALK-positive advanced NSCLC
Test: Phase I clinical trial, indication expansion phase: efficacy in ALK-positive patients (group A cohort 1: prior crizotinib only; cohort 2: prior second-generation ALK inhibitor; group C: ALK inhibitor naive)
Assay type: in vivo, human
Description: The anti-tumor efficacy is evaluated according to RECIST version 1.1. For patients initially evaluated as having a complete response (CR) or partial response (PR), efficacy should be confirmed at least 4 weeks later. In the patients with asymptomatic central nervous system (CNS) metastases, in addition to evaluating 5 extracranial target lesions, up to 5 intracranial target lesions will also be evaluated. The specific indicators are as follows:
"ORR" includes CR and PR, and is defined as the proportion of patients who achieve complete response or partial response.
"IC-ORR" includes CR or PR for confirmed intracranial lesions, and is defined as the proportion of the patients with complete response or partial response of intracranial lesions among the patients with intracranial lesions.
"DCR" is defined as the proportion of the patients who achieve response (PR+CR) and stable disease (SD) after a treatment.
"IC-DCR" is defined as the proportion of the patients who achieve intracranial response (PR+CR), intracranial stable disease (SD), and […] after a treatment among the patients with intracranial lesions.
"DOR" is defined as the time from the first assessment of CR or PR to progressive disease or death, and is only applicable to the patients who achieve response.
"IC-DOR" is defined as the time from the first assessment of intracranial CR or intracranial PR to progressive disease or death, and is only applicable to the patients whose intracranial lesions achieve response.
"TTR" is defined as the time from patient enrollment (first dose of investigational drug) to tumor response (CR/PR), based on the patients with objective response.
"IC-TTR" is defined as the time from patient enrollment (first dose of investigational drug) to intracranial tumor response (IC-CR/PR), based on the patients with intracranial objective response.
"PFS" is defined as the time from the first administration of the investigational drug to progressive disease (PD) or death from any cause, whichever comes first.
In the indication expansion phase, an appropriate administration regimen was determined based on the safety, tolerability, PK and efficacy data from the dose escalation phase and dose expansion phase, and the expansion was performed within the target population.
The result of a pregnancy test conducted ≤7 days prior to the first administration of the investigational drug must be negative for the women of childbearing age.

[1] = A cohort 2, prior 3 or more second-generation ALK inhibitors, chemotherapy (N=11)
[2] = A cohort 2, prior 3 or more second-generation ALK inhibitors, no chemotherapy (N=7)
[3] = A cohort 2, prior one second-generation ALK inhibitor, chemotherapy (N=14)
[4] = A cohort 2, prior one second-generation ALK inhibitor, no chemotherapy (N=26)
[5] = A cohort 2, prior two second-generation ALK inhibitors, chemotherapy (N=15)
[6] = A cohort 2, prior two second-generation ALK inhibitors, no chemotherapy (N=24)
[7] = intracranial measurable lesions, Group A, cohort 1 (n=4)
[8] = intracranial measurable lesions, Group A, cohort 2 (n=27)
[9] = intracranial measurable lesions, Group C (n=8)
[10] = intracranial measurable lesions, In total (ALK-positive) (n=52)
[11] = systemic, Group A, cohort 1 (n=14)
[12] = systemic, Group A, cohort 2 (n=97)
[13] = systemic, In total (ALK-positive) (n=144)

## [2H]C([2H])([2H])n1nc2c(c1C#N)-c1cnc(N)c(c1)O[C@H](C)c1cc(F)ccc1C(=O)N(C)C2 [compound A, (10R)-7-amino-12-fluoro-2-(methyl-d3)-10,16-dimethyl-15-oxo-10,15,16,17-tetrahydro-2H-8,4-(metheno)pyrazolo[4,3-h][2,5,11]benzoxadiazacyclotetradecine-3-carbonitrile]
14 patients previously received crizotinib with or without chemotherapy
  ORR: 71.4%
33 ALK TKI-treatment naive patients
  ORR: 84.8%
97 patients previously received a second-generation TKI
  overall ORR: 39.2%
[1]
  BOR CR: 0 n (%)
  BOR NE: 0 n (%)
  BOR PD: 1 (9.1) n (%)
  BOR PR: 3 (27.3) n (%)
  BOR SD: 7 (63.6) n (%)
  Confirmed ORR (95% CI): 3 (27.3) (6.0, 61.0) n (%)
  DCR (95% CI): 10 (90.9) (58.7, 99.8) n (%)
  Median TTR (range): 1.35 (1.28, 7.00) months
[2]
  BOR CR: 0 n (%)
  BOR NE: 1 (14.3) n (%)
  BOR PD: 0 n (%)
  BOR PR: 3 (42.9) n (%)
  BOR SD: 3 (42.9) n (%)
  Confirmed ORR (95% CI): 3 (42.9) (9.9, 81.6) n (%)
  DCR (95% CI): 6 (85.7) (42.1, 99.6) n (%)
  Median TTR (range): 1.35 (1.35, 1.45) months
[3]
  BOR CR: 0 n (%)
  BOR NE: 1 (7.1) n (%)
  BOR PD: 4 (28.6) n (%)
  BOR PR: 6 (42.9) n (%)
  BOR SD: 3 (21.4) n (%)
  Confirmed ORR (95% CI): 6 (42.9) (17.7, 71.1) n (%)
  DCR (95% CI): 9 (64.3) (35.1, 87.2) n (%)
  Median TTR (range): 2.07 (1.35, 6.90) months
[4]
  BOR CR: 0 n (%)
  BOR NE: 0 n (%)
  BOR PD: 6 (23.1) n (%)
  BOR PR: 9 (34.6) n (%)
  BOR SD: 11 (42.3) n (%)
  Confirmed ORR (95% CI): 9 (34.6) (17.2, 55.7) n (%)
  DCR (95% CI): 20 (76.9) (56.4, 91.0) n (%)
  Median TTR (range): 1.38 (1.28, 6.80) months
[5]
  BOR CR: 0 n (%)
  BOR NE: 0 n (%)
  BOR PD: 2 (13.3) n (%)
  BOR PR: 6 (40.0) n (%)
  BOR SD: 7 (46.7) n (%)
  Confirmed ORR (95% CI): 6 (40.0) (16.3, 67.7) n (%)
  DCR (95% CI): 13 (86.7) (59.5, 98.3) n (%)
  Median DOR (95% CI): 12.45 (5.39, -) months
  Median TTR (range): 1.40 (1.31, 2.79) months
[6]
  BOR CR: 0 n (%)
  BOR NE: 0 n (%)
  BOR PD: 3 (12.5) n (%)
  BOR PR: 11 (45.8) n (%)
  BOR SD: 10 (41.7) n (%)
  Confirmed ORR (95% CI): 11 (45.8) (25.6, 67.2) n (%)
  DCR (95% CI): 21 (87.5) (67.6, 97.3) n (%)
  Median DOR (95% CI): 12.48 (2.76, -) months
  Median TTR (range): 1.38 (1.35, 9.72) months
ALK TKI-naive, 8 patients with measurable CNS lesions at baseline
  intracranial ORR: 75%
Cohort 2 of group A, FAS, as of April 17, 2024
  median PFS: 6.87 months
[7]
  BOR CR: 1 n (%) and 1 (25.0) n (%)
  BOR NE: 0 n (%)
  BOR PD: 0 n (%)
  BOR PR: 1 n (%) and 1 (25.0) n (%)
  BOR SD: 2 (50.0) n (%)
  Confirmed ORR (95% CI): 2 (50.0) (6.8, 93.2) n (%)
  DCR (95% CI): 4 (100) (39.8, 100.0) n (%)
  Median DOR (95% CI): not reached; also recorded: NR (NR, NR)
  Median TTR (range): 1.36 months and 1.36 (1.35, 1.38) months
[8]
  BOR CR: 5 n (%) and 5 (18.5) n (%)
  BOR NE: 1 (3.7) n (%)
  BOR PD: 0 n (%)
  BOR PR: 14 n (%) and 14 (51.9) n (%)
  BOR SD: 7 (25.9) n (%)
  Confirmed ORR (95% CI): 19 (70.4) (49.8, 86.2) n (%)
  DCR (95% CI): 26 (96.3) (81.0, 99.9) n (%)
  Median DOR (95% CI): 17.97 months and 17.97 (6.64, NR) months
  Median TTR (range): 1.41 months and 1.41 (1.31, 9.72) months
[9]
  BOR CR: 0 n (%)
  BOR NE: 0 n (%)
  BOR PD: 0 n (%)
  BOR PR: 6 n (%) and 6 (75.0) n (%)
  BOR SD: 2 (25.0) n (%)
  Confirmed ORR (95% CI): 6 (75.0) (34.9, 96.8) n (%)
  DCR (95% CI): 8 (100) (63.1, 100) n (%)
  Median DOR (95% CI): not reached; also recorded: NR (4.17, NR)
  Median TTR (range): 1.41 months and 1.41 (1.35, 1.45) months
[10]
  BOR CR: 6 (11.5) n (%)
  BOR NE: 2 (3.8) n (%)
  BOR PD: 1 (1.9) n (%)
  BOR PR: 24 (46.2) n (%)
  BOR SD: 19 (36.5) n (%)
  Confirmed ORR (95% CI): 30 (57.7) (43.2, 71.3) n (%)
  DCR (95% CI): 49 (94.2) (84.1, 98.8) n (%)
  Median DOR (95% CI): 17.97 (17.97, -) months
  Median TTR (range): 1.40 (1.31, 9.72) months
Prior crizotinib, four patients with measurable CNS lesions at baseline
  intracranial ORR: 50.0%
Prior second-generation TKI, 27 patients with measurable CNS lesions at baseline
  IC-ORR: 70.4%
[11]
  BOR CR: 0 n (%)
  BOR NE: 0 n (%)
  BOR PD: 0 n (%)
  BOR PR: 10 n (%) and 10 (71.4) n (%)
  BOR SD: 4 n (%) and 4 (28.6) n (%)
  Confirmed ORR (95% CI): 10 (71.4) (41.9, 91.6) n (%)
  DCR (95% CI): 14 (100) (76.8, 100.0) n (%)
  Median DOR (95% CI): not reached; also recorded: NR (5.585, NR)
  Median TTR (range): 2.71 months and 2.71 (1.25, 9.66) months
[12]
  BOR CR: 0 n (%)
  BOR NE: 2 (2.1) n (%)
  BOR PD: 16 (16.5) n (%)
  BOR PR: 38 (39.2) n (%)
  BOR SD: 41 (42.3) n (%)
  Confirmed ORR (95% CI): 38 (39.2) (29.4, 49.6) n (%)
  DCR (95% CI): 79 (81.4) (72.3, 88.6) n (%)
  Median DOR (95% CI): 12.48 months and 12.48 (12.45, NR) months
  Median TTR (range): 1.38 months and 1.38 (1.28, 9.72) months
systemic, Group C (n=33)
  BOR CR: 0 n (%)
  BOR NE: 0 n (%)
  BOR PD: 1 (3.0) n (%)
  BOR PR: 28 n (%) and 28 (84.8) n (%)
  BOR SD: 4 n (%) and 4 (12.1) n (%)
  Confirmed ORR (95% CI): 28 (84.8) (68.1, 94.9) n (%)
  DCR (95% CI): 32 (97.0) (84.2, 99.9) n (%)
  Median DOR (95% CI): not reached; also recorded: NR (9.69, NR)
  Median TTR (range): 1.35 months and 1.35 (1.12, 4.21) months
[13]
  BOR CR: 0 n (%)
  BOR NE: 5 (2.9) n (%)
  BOR PD: 21 (12.3) n (%)
  BOR PR: 84 (49.1) n (%)
  BOR SD: 61 (35.7) n (%)
  Confirmed ORR (95% CI): 84 (49.1) (41.4, 56.9) n (%)
  DCR (95% CI): 145 (84.8) (78.5, 89.8) n (%)
  Median DOR (95% CI): 12.48 (12.45, -) months
  Median TTR (range): 1.38 (1.12, 13.96) months
